Legend:
[1] = Animal body weights in the hyperuricemia rat experiment (Example 22); type: in vivo, SD rats; details: allopurinol 27 mg/kg + potassium oxonate 1.5 g/kg, intragastric, mean ± SD
Method: (§1) 105 SPF grade SD rats, all of which are male and have a body weight of 200±20 (g), provided by Beijing Vital River Laboratory Animal Technology Co., Ltd. (license number: SOCK (Beijing) 2012-0001) were taken. Potassium oxonate, Jinan Chenghuishuangda Chemical Co., Ltd. product with the batch number of 12042001, was prepared with 0.1% CMC-Na into a suspension of a concentration of 0.15 g/ml in an amount for 3 d each time and the stock was stored at 4° C. Allopurinol, Tokyo chemical industry Co. Ltd. product with the batch number of MYRYA-IR, was prepared with 0.1% CMC-Na into a suspension of a concentration of […] in an amount for 3 d each time and the stock was stored at 4° C. . Uric acid and urea nitrogen test kit were provided by Centronic GmbH company in German, with the batch numbers of UF03121HH6G and UF01121GG66G respectively, and creatinine test kit was provided by Shanghai Lanyi Technology Co. Ltd. with the batch number of R102APA.
SD rats were adapted for 5 days in the experimental environment, and randomly divided by body weight into normal control group, model group, allopurinol group, Sample 1 (the composition of Chinese herbal medicines and tuna extract prepared in Example 18) high-dose group and low-dose group and Sample 2 (the composition of Chinese herbal medicines prepared in Example 18 excluding tuna extract) high-dose group and low-dose group. According to the clinical dose, the intragastric doses of Samples 1 and 2 were 5 times larger (0.2 ml/100 g) and 30 times larger (1.25 ml/100 g) than the recommended amount for human body for the low-dose groups and high-dose groups, respectively.
(§2) The same volume of drinking water was intragastrically administered to the normal control group every day, and the potassium oxonate was intragastrically administered to each of the rest groups of rats every morning at 1.5 g·kg^−1·d^−1; the same volume of physiological saline was intragastrically administered to the model group in the afternoon; the allopurinol was intragastrically administered to the allopurinol group at 27 mg·kg^−1·d^−1 in the afternoon; the samples to be tested of different doses diluted to the same volume were intragastrically administered to the Sample 1 of high-dose and low-dose groups and the Sample 2 of high-dose and low-dose groups in the afternoon.
(§3) The body weights of the rats were monitored, the blood samples were collected to measure the uric acid, creatinine and urea nitrogen before the experiments and at the 15th day of the administration, and the variance ratio of the serum uric acid levels was measured and calculated.

[2] = Animal body weights in the comparative test (Example 23); type: in vivo, SD rats; details: allopurinol 27 mg/kg + potassium oxonate 1.5 g/kg, mean ± SD
Method: as §1, §2, §3
Experimental group: Sample 1—the composition prepared in Example 1.

[3] = tested on: hyperuricemia model of rats; assay: Potassium oxonate hyperuricemia model of rats: serum uric acid, urea nitrogen and creatinine after 15 d intragastric administration (Example 22); type: in vivo; details: allopurinol 27 mg/kg + potassium oxonate 1.5 g/kg
Method: 105 SPF grade SD rats, all of which are male and have a body weight of 200±20 (g), provided by Beijing Vital River Laboratory Animal Technology Co., Ltd. (license number: SOCK (Beijing) 2012-0001) were taken. Potassium oxonate, Jinan Chenghuishuangda Chemical Co., Ltd. product with the batch number of 12042001, was prepared with 0.1% CMC-Na into a suspension of a concentration of 0.15 g/ml in an amount for 3 d each time and the stock was stored at 4° C. Allopurinol, Tokyo chemical industry Co. Ltd. product with the batch number of MYRYA-IR, was prepared with 0.1% CMC-Na into a suspension of a concentration of 2.7 g/ml in an amount for 3 d each time and the stock was stored at 4° C. . Uric acid and urea nitrogen test kit were provided by Centronic GmbH company in German, with the batch numbers of UF03121HH6G and UF01121GG66G respectively, and creatinine test kit was provided by Shanghai Lanyi Technology Co. Ltd. with the batch number of R102APA. […]
The body weights of the rats were monitored, the blood samples were collected to measure the uric acid, creatinine and urea nitrogen before the experiments and at the 15th day of the administration, and the variance ratio of the serum uric acid levels was measured and calculated. […]

[4] = tested on: hyperuricemia model of rats; assay: Comparative test in potassium oxonate hyperuricemia rats: serum uric acid, urea nitrogen and creatinine (Example 23); type: in vivo; details: 15 d intragastric, allopurinol 27 mg/kg + potassium oxonate 1.5 g/kg, mean ± SD
Source text: (license number: SOCK (Beijing) 2012-0001) were taken. […] Allopurinol, Tokyo chemical industry Co. […] Uric acid and urea nitrogen test kit were provided by Centronic GmbH company in German, with the batch numbers of UF03121HH6G and UF01121G[…] respectively, and creatinine test kit was provided by Shanghai Lanyi Technology Co. Ltd. with the batch number of […]. […] Modeling principle: the rats were intragastrically administered with the chemical uricase inhibitor, potassium oxonate to inhibit the uricase activity in the rats, which make the uric acid in their body unable to be decomposed and resulting in an increase of serum uric acid to replicate the hyperuricemia model of rats. The body weights of the rats were monitored, the blood samples were collected to measure the uric acid, creatinine and urea nitrogen before the experiments and at the 15th day of the administration, and the variance ratio of the serum uric acid levels was measured and calculated. Comparative Test […] Coicis semen 18, Cichorii Herba 8, […] Herba 8 and Pueraia Lobata Radix 8. The health food having the function of lowering uric acid provided in Comparative Example 2 of the present invention is prepared from the following components in parts by weight: Coicis semen 18, Motherwort 10, Cichorii Herba 8, […] Herba 8, Pueraia Lobata Radix 8 and tuna extract 0.1. […] Coicis semen 18, […] semen 9, Cichorii Herba 8, […] […]

In the case of `Oc1ncnc2[nH]ncc12` [Allopurinol], the “animal body weights, Before Experiments” value ([1]; baseline, N=15) is reported as 290 ± 13 g, the “animal body weights, 1 week after treatment” value [1] is reported as 322 ± 20 g and the “animal body weights, 2 weeks after treatment” value [1] is reported as 352 ± 24 g. The “animal body weights, 3 weeks after treatment” value [1] was 366 ± 28 g, the “animal body weights, 4 weeks after treatment” value [1] was 387 ± 29 g and the “animal body weights, Before Experiments” value ([2]; baseline, N=15) was 290 ± 13 g. The “animal body weights, 1 week after treatment” value [2] was 322 ± 20 g, the “animal body weights, 2 weeks after treatment” value [2] was 352 ± 24 g and the “animal body weights, 3 weeks after treatment” value [2] was 366 ± 28 g. The “animal body weights, 4 weeks after treatment” value [2] was 387 ± 29 g, the Creatinine ([3]; model group 31.0 ± 3.3, mean ± SD) was 27.9 ± 2.2 µmol/L and the “Uric Acid” value ([3]; model group 256.4 ± 41.3, mean ± SD) was 31.8 ± 10.3 µmol/L. For the same compound, the Creatinine ([4]; model group 31.0 ± 3.3) was 27.9 ± 2.2 µmol/L and the “Uric Acid” value ([4]; model group 256.4 ± 41.3) was 31.8 ± 10.3 µmol/L.
